Experimental data published in patent publication US10703757B2, “Compounds and methods for CDK8 modulation and indications therefor” (Plexxikon Inc., priority 2016, dated 2020).

Legend:
[1] = system: CDK8 (phosphorylation of STAT1 at serine 727 in A549 cells); assay: Cell based Phospho-STAT1 assay (IFNγ-stimulated A549 cells, AlphaLISA); details: Homo sapiens, A549, A549 cells, phospho-STAT1 after IFNγ stimulation
In short: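 A549 cells given serial compound dilutions for 1 h at 37 °C, then stimulated with IFNγ at 10 ng/mL final for 30 min. Lysate STAT1 Ser727 phosphorylation measured by AlphaLISA; % inhibition vs stimulated/unstimulated DMSO controls, IC50 by nonlinear regression.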

[2] = system: CDK8 (TCF/LEF luciferase reporter in HCT116 cells); assay: Cell based TCF/LEF reporter assay (HCT116+TCF/LEF luciferase); details: Homo sapiens, HCT-116, 24 h
In short: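 HCT116 cells stably carrying a TCF/LEF-luciferase reporter (endogenous mutant β-catenin), seeded overnight, then exposed to serial compound dilutions for 24 h at 37 °C. Luminescence normalized to CellTiter-Fluor viability signal. % inhibition relative to DMSO and 10 uM CCT251545 controls, with IC50 from nonlinear regression.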

Structure (SMILES)	IC50 [1]	IC50 [2]
Cn1cc(-c2ccc(-c3cnn4cccc(C#CC(C)(C)C(N)=O)c34)cc2)cn1 [Compound P-0295, 2,2-dimethyl-4-(3-(4-(1-methyl-1H-pyrazol-4-yl)phenyl)pyrazolo[1,5-a]pyridin-4-yl)but-3-ynamide]	0.1 to 100 nM	0.1 to 100 nM
CNC(=O)C(C)(C)C#Cc1cccn2ncc(-c3ccc(-c4cnn(C)c4)cc3)c12 [Compound P-0296, N,2,2-trimethyl-4-(3-(4-(1-methyl-1H-pyrazol-4-yl)phenyl)pyrazolo[1,5-a]pyridin-4-yl)but-3-ynamide]	100 to 1000 nM	1000 to 10000 nM
Cn1cc(-c2ccc(-c3cnn4cccc(C#CC(C)(C)C(=O)O)c34)cc2)cn1 [Compound P-0297, 2,2-dimethyl-4-(3-(4-(1-methyl-1H-pyrazol-4-yl)phenyl)pyrazolo[1,5-a]pyridin-4-yl)but-3-ynoic acid]	100 to 1000 nM	0.1 to 100 nM
CC(=O)N1CCC(Oc2cccc3ncc(-c4ccc(-c5cnn(C(F)F)c5)cc4)n23)CC1 [Compound P-0304, 1-[4-[3-[4-[1-(difluoromethyl)pyrazol-4-yl]phenyl]imidazo[1,2-a]pyridin-5-yl]oxy-1-piperidyl]ethanone]	1000 to 10000 nM	1000 to 10000 nM
Cn1cc(-c2ccc(-c3cnn4cccc(C#CC(C)(C)NS(C)(=O)=O)c34)cc2)cn1 [Compound P-0308, N-(2-methyl-4-(3-(4-(1-methyl-1H-pyrazol-4-yl)phenyl)pyrazolo[1,5-a]pyridin-4-yl)but-3-yn-2-yl)methanesulfonamide]	100 to 1000 nM	100 to 1000 nM
Cn1cc(-c2ccc(-c3cnn4cccc(C#CC(C)(C)N)c34)cc2)cn1 [Compound P-0309, 2-methyl-4-(3-(4-(1-methyl-1H-pyrazol-4-yl)phenyl)pyrazolo[1,5-a]pyridin-4-yl)but-3-yn-2-amine]	0.1 to 100 nM	100 to 1000 nM
Cn1cc(-c2ccc(-c3cnn4cccc(C#CC5(O)CCC5)c34)cc2)cn1 [Compound P-0310, 1-((3-(4-(1-methyl-1H-pyrazol-4-yl)phenyl)pyrazolo[1,5-a]pyridin-4-yl)ethynyl)cyclobutan-1-ol]	0.1 to 100 nM	0.1 to 100 nM
Cc1nn(C)cc1-c1ccc(-c2cnn3cccc(C#CC(C)(C)O)c23)cc1 [Compound P-0311, 4-(3-(4-(1,3-dimethyl-1H-pyrazol-4-yl)phenyl)pyrazolo[1,5-a]pyridin-4-yl)-2-methylbut-3-yn-2-ol]	0.1 to 100 nM	100 to 1000 nM
COc1ncc(C#Cc2cnc3cccc(N4CCC(C#N)CC4)n23)cn1 [Compound P-0313, 1-(3-((2-methoxypyrimidin-5-yl)ethynyl)imidazo[1,2-a]pyridin-5-yl)piperidine-4-carbonitrile]	100 to 1000 nM	100 to 1000 nM
COc1ncc(C#Cc2cnc3cccc(C4=CCC(C#N)CC4)n23)cn1 (centres unmarked) [Compound P-0314, 4-(3-((2-methoxypyrimidin-5-yl)ethynyl)imidazo[1,2-a]pyridin-5-yl)cyclohex-3-ene-1-carbonitrile]	0.1 to 100 nM	0.1 to 100 nM
O=C(C1CCC(c2cccn3ncc(-c4ccc(-c5cnn(C(F)F)c5)cc4)c23)CC1)N1CCC1 (centres unmarked) [Compound P-0315, azetidin-1-yl(4-(3-(4-(1-(difluoromethyl)-1H-pyrazol-4-yl)phenyl)pyrazolo[1,5-a]pyridin-4-yl)cyclohexyl)methanone]	100 to 1000 nM	100 to 1000 nM
NC(=O)C1CCC(c2cccn3ncc(-c4ccc(-c5cnn(C(F)F)c5)cc4)c23)CC1 (centres unmarked) [Compound P-0316, 4-(3-(4-(1-(difluoromethyl)-1H-pyrazol-4-yl)phenyl)pyrazolo[1,5-a]pyridin-4-yl)cyclohexane-1-carboxamide]	0.1 to 100 nM	0.1 to 100 nM
CNC(=O)C1CCC(c2cccn3ncc(-c4ccc(-c5cnn(C(F)F)c5)cc4)c23)CC1 (centres unmarked) [Compound P-0317, 4-(3-(4-(1-(difluoromethyl)-1H-pyrazol-4-yl)phenyl)pyrazolo[1,5-a]pyridin-4-yl)-N-methylcyclohexane-1-carboxamide]	0.1 to 100 nM	100 to 1000 nM
CS(=O)(=O)C1CCC(Oc2cccc3ncc(-c4ccc(-c5cnn(C(F)F)c5)cc4)n23)C1 (centres unmarked) [Compound P-0321, 3-(4-(1-(difluoromethyl)-1H-pyrazol-4-yl)phenyl)-5-((3-(methylsulfonyl)cyclopentyl)oxy) imidazo[1,2-a]pyridine]	1000 to 10000 nM	1000 to 10000 nM
N#CC1(c2ccccc2)CCN(c2cccc3ncc(-c4ccc(-c5cnn(C(F)F)c5)cc4)n23)CC1 [Compound P-0322, 1-(3-(4-(1-(difluoromethyl)-1H-pyrazol-4-yl)phenyl)imidazo[1,2-a]pyridin-5-yl)-4-phenylpiperidine-4-carbonitrile]	100 to 1000 nM	100 to 1000 nM
Cn1cc(-c2ccc(-c3cnn4ccnc(C5=CCC(C#N)CC5)c34)cc2)cn1 (centres unmarked) [Compound P-0323, 4-(3-(4-(1-methyl-1H-pyrazol-4-yl)phenyl)pyrazolo[1,5-a]pyrazin-4-yl)cyclohex-3-ene-1-carbonitrile]	0.1 to 100 nM	0.1 to 100 nM

Structure (SMILES)	IC50 [1]	IC50 [2]
Cn1ncc2cc(-c3cnn4ccnc(C5=CCC(C#N)CC5)c34)ccc21 (centres unmarked) [Compound P-0324, 4-(3-(1-methyl-1H-indazol-5-yl)pyrazolo[1,5-a]pyrazin-4-yl)cyclohex-3-ene-1-carbonitrile]	0.1 to 100 nM	0.1 to 100 nM
N#CC1CCN(c2c(-c3ccc(OCCCN4CCOCC4)cc3)cnc3[nH]ccc23)CC1 [Compound P-0327, 1-(5-(4-(3-morpholinopropoxy)phenyl)-1H-pyrrolo[2,3-b]pyridin-4-yl)piperidine-4-carbonitrile]	0.1 to 100 nM	0.1 to 100 nM
CN1CCN(C(=O)c2ccc3cc(-c4cnc5[nH]ccc5c4N4CCC(C#N)CC4)ccc3c2)CC1 [Compound P-0328, 1-(5-(6-(4-methylpiperazine-1-carbonyl)naphthalen-2-yl)-1H-pyrrolo[2,3-b]pyridin-4-yl)piperidine-4-carbonitrile]	0.1 to 100 nM	0.1 to 100 nM
CC(C)(O)Cn1cc(-c2ccc(-c3cnc4[nH]ccc4c3N3CCC(C#N)CC3)cc2)cn1 [Compound P-0329, 1-(5-(4-(1-(2-hydroxy-2-methylpropyl)-1H-pyrazol-4-yl)phenyl)-1H-pyrrolo[2,3-b]pyridin-4-yl)piperidine-4-carbonitrile]	0.1 to 100 nM	0.1 to 100 nM
CNC(=O)c1ccc2cc(-c3cnn4cccc(C5=CCC(C#N)CC5)c34)ccc2c1 (centres unmarked) [Compound P-0330, 6-(4-(4-cyanocyclohex-1-en-1-yl)pyrazolo[1,5-a]pyridin-3-yl)-N-methyl-2-naphthamide]	0.1 to 100 nM	0.1 to 100 nM
CN1CCN(C(=O)c2ccc(-c3cnc4[nH]ccc4c3C3=CCC(C#N)CC3)cc2)CC1 (centres unmarked) [Compound P-0331, 4-(5-(4-(4-methylpiperazine-1-carbonyl)phenyl)-1H-pyrrolo[2,3-b]pyridin-4-yl)cyclohex-3-ene-1-carbonitrile]	100 to 1000 nM	100 to 1000 nM
CC(C)(O)Cn1cc(-c2ccc(-c3cnc4[nH]ccc4c3C3=CCC(C#N)CC3)cc2)cn1 (centres unmarked) [Compound P-0332, 4-(5-(4-(1-(2-hydroxy-2-methylpropyl)-1H-pyrazol-4-yl)phenyl)-1H-pyrrolo[2,3-b]pyridin-4-yl)cyclohex-3-ene-1-carbonitrile]	0.1 to 100 nM	0.1 to 100 nM
Cn1cc(-c2ccc(-c3cnn4cccc(C5=CCC(C(=O)N6CCC6)CC5)c34)cc2)cn1 (centres unmarked) [Compound P-0333, azetidin-1-yl-[4-[3-[4-(1-methylpyrazol-4-yl)phenyl]pyrazolo[1,5-a]pyridin-4-yl]cyclohex-3-en-1-yl]methanone]	100 to 1000 nM	100 to 1000 nM
Cn1ncc2cc(-c3cnn4cccc(C5CCC(C#N)CC5)c34)ccc21 (centres unmarked) [Compound P-0337, 4-(3-(1-methyl-1H-indazol-5-yl)pyrazolo[1,5-a]pyridin-4-yl)cyclohexane-1-carbonitrile]	0.1 to 100 nM	0.1 to 100 nM
Cn1cc(-c2ccc(-c3cnc4[nH]ccc4c3C#CC(C)(C)O)cc2)cn1 [Compound P-0341, 2-methyl-4-(5-(4-(1-methyl-1H-pyrazol-4-yl)phenyl)-1H-pyrrolo[2,3-b]pyridin-4-yl)but-3-yn-2-ol]	0.1 to 100 nM	0.1 to 100 nM
Cn1ncc2cc(-c3cnc4[nH]ccc4c3C3=CCC(C#N)CC3)ccc21 (centres unmarked) [Compound P-0358, 4-(5-(1-methyl-1H-indazol-5-yl)-1H-pyrrolo[2,3-b]pyridin-4-yl)cyclohex-3-ene-1-carbonitrile]	0.1 to 100 nM	0.1 to 100 nM
Cn1cc(-c2ccc(-c3cnc4[nH]ccc4c3C3=CCC(C#N)CC3)cc2)cn1 (centres unmarked) [Compound P-0359, 4-(5-(4-(1-methyl-1H-pyrazol-4-yl)phenyl)-1H-pyrrolo[2,3-b]pyridin-4-yl)cyclohex-3-ene-1-carbonitrile]	0.1 to 100 nM	0.1 to 100 nM
Cn1ncc2cc(-c3cnn4cccc(C#CC5(O)COC5)c34)ccc21 [Compound P-0362, 3-((3-(1-methyl-1H-indazol-5-yl)pyrazolo[1,5-a]pyridin-4-yl)ethynyl)oxetan-3-ol]	0.1 to 100 nM	100 to 1000 nM
N#CC1CCN(c2cccn3ncc(-c4ccc(-n5cccn5)cc4)c23)CC1 [Compound P-0363, 1-(3-(4-(1H-pyrazol-1-yl)phenyl)pyrazolo[1,5-a]pyridin-4-yl)piperidine-4-carbonitrile]	0.1 to 100 nM	0.1 to 100 nM
Cc1noc(-c2ccc(-c3cnn4cccc(N5CCC(C#N)CC5)c34)cc2)n1 [Compound P-0366, 1-(3-(4-(3-methyl-1,2,4-oxadiazol-5-yl)phenyl)pyrazolo[1,5-a]pyridin-4-yl)piperidine-4-carbonitrile]	0.1 to 100 nM	0.1 to 100 nM
